Reference: publication PMC11645656, “MRGPRX4 mediates phospho-drug associated pruritus in a humanized mouse model” (Science translational medicine, 2024)
“And” between values parts separate entries of the source, which are not always exact repeats. Equal values may be shown once. *1 amine or outer side, *2 acyl side, *3 side chain or, on linkers, in order; H or OH if unused. Where a SMILES comes first, the peptide text is derived from it. Bridges are numbered along the chain shown (N, C = ends). [ ]: non-standard residue; d: D form. X1 = CC(=O)NC(C(=O)OC(C(C)C)C(N[*:1])C(=O)[*:2])C(O)C(C)C; PhLac = O=C(O)[CH](O)Cc1ccccc1; NMeT = CN[CH](C(=O)O)[CH](C)O; NMeA = CN[CH](C)C(=O)O; NMeDha = C=C(NC)C(=O)O

Tests used:
MRGPRX4 (S83) = biological target: T1, MRGPRX4 (S83) (Homo sapiens, UniProt Q96LA9, L83S); assay: EC50 determination, intracellular calcium mobilization in MRGPRX4 stably expressed HEK293 cells (FLIPR Calcium 5, Flexstation-3); type: cell-based; set-up: Fig. 1D dose-response, calcium mobilization response (individual replicate) / calcium mobilization response (Fig. 1D dose-response raw data): unit not given here; conditions: for Fig. 1D dose-response, calcium response at Concentration (M): propofol series, individual replicate values; for Hill coefficient: dose-response curve fitting, table S1
T1 construct: expressed in transfected cells
T1 sequence (Q96LA9 whole entry L83S): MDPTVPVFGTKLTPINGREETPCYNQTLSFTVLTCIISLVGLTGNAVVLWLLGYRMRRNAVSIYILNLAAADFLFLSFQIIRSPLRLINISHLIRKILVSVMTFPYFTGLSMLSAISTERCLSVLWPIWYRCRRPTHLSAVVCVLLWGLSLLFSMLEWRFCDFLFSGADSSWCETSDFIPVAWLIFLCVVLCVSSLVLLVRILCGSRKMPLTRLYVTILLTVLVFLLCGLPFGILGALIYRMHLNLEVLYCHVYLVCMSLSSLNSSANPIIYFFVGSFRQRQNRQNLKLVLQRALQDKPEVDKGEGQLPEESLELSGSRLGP
Description: HEK293 cells and MRGPRX4 stably expressed HEK293 cells were seeded in 100 μl culture media on 96-well plates at a density of 40,000 cells per well and incubated overnight. The next day, the media were replaced with a dye-loading solution from the FLIPR Calcium 5 assay kit (Molecular Devices), diluted in Hank's Balanced Salt Solution (HBSS) with 20 mM HEPES, pH 7.4. After 1 h of incubation at 37°C, cells were allowed to recover for 10 min in the dark at room temperature prior to performing intracellular calcium mobilization assay in a Flexstation-3 instrument with SoftMax®Pro 7.1 software (Molecular Devices). Serial concentrations of tested drugs were prepared in HBSS/HEPES solution at 3X concentration. […] Compounds were tested in triplicates and the signals were averaged. Responses were determined by subtracting the minimum signal (at the baseline before adding the drug) from the maximum signal (obtained after drug stimulation). Four-parameter logistic (4PL) curve fit was used to plot the dose-response curves. […] Both dose-response curve fitting and EC50s calculation are computed with GraphPad Prism software (version: 6.o or above).

[1] = system: MRGPRX4-expressing HEK293 cells (Gαq signaling pathway); assay: Pharmacological blocker experiments: phospho-drug evoked calcium response in MRGPRX4-expressing HEK293 cells after inhibitor preincubation; conditions: 30 min preincubation; 10 µM YM 254890, 20 µM U73122, 10 µM thapsigargin; stimulated with fospropofol, fosphenytoin or dexamethasone phosphate
Description: Various HEK293 cell lines were plated on PDL-coated glass coverslips. […] For pharmacological blocker experiments, cells were pre-incubated with signaling pathway inhibitors, including YM254890, U73122, and thapsigargin, for 30 min before imaging.
Traces of [Ca2+] from MRGPRX4-expressing HEK293 cells stimulated with (A) 1 µM
U73122 (middle), or 10 µM sarco/endoplasmic reticulum Ca2+-ATPase inhibitor thapsigargin
(right) for 30 min before imaging.
independent experiments, each performed in quadruplicate.

CC(C)c1cccc(C(C)C)c1O[C@@H]1O[C@H](C(=O)O)[C@@H](O)[C@H](O)[C@H]1O [Propofol b-D-glucuronide]
Fig. 1D dose-response, calcium response at Concentration (M) (MRGPRX4 (S83); 9.76563e-7 M): 33.404 and 17.610 and 15.299 and 5.092 and 25.748 and 35.472 and 37.279 and 14.971 and 14.062
Fig. 1D dose-response, calcium response at Concentration (M) (MRGPRX4 (S83); 1.95313e-6 M): 24.553 and 28.290 and 26.471 and 25.162 and 11.839 and 42.312 and 38.770 and 25.122 and 15.422
Fig. 1D dose-response, calcium response at Concentration (M) (MRGPRX4 (S83); 3.90625e-6 M): -0.931 and -0.509 and -0.147 and -0.531 and -0.497 and -0.558 and -1.252 and -0.171 and -0.163
Fig. 1D dose-response, calcium response at Concentration (M) (MRGPRX4 (S83); 7.8125e-6 M): -3.944 and -3.544 and -1.450 and -3.087 and -3.091 and -2.761 and -3.250 and -1.367 and -4.322
Fig. 1D dose-response, calcium response at Concentration (M) (MRGPRX4 (S83); 1.5625e-5 M): -14.193 and -2.564 and -12.325 and -15.196 and -3.788 and -10.098 and -11.561 and -10.981 and -6.540
Fig. 1D dose-response, calcium response at Concentration (M) (MRGPRX4 (S83); 3.125e-5 M): -0.025 and -0.623 and -1.002 and -0.534 and -0.882 and -0.234 and -0.728 and -0.769 and -0.154
Fig. 1D dose-response, calcium response at Concentration (M) (MRGPRX4 (S83); 6.25e-5 M): -11.462 and -7.089 and -18.181 and -19.274 and -11.464 and -5.994 and -9.636 and -15.344 and -11.752
Fig. 1D dose-response, calcium response at Concentration (M) (MRGPRX4 (S83); 0.00025 M): -8.452 and -1.759 and -25.311 and -28.879 and -1.342 and -5.301 and -7.817 and -14.781 and -12.923
Fig. 1D dose-response, calcium response at Concentration (M) (MRGPRX4 (S83); 0.0005 M): -2.705 and -17.232 and -3.163 and -5.843 and -6.495 and -10.762 and -7.609 and -4.103 and -11.388
Fig. 1D dose-response, calcium response at Concentration (M) (MRGPRX4 (S83); 0.001 M): -9.560 and -7.574 and -9.738 and -14.721 and -4.551 and -7.600 and -11.650 and -7.050 and -8.173

Cn1nnc(-c2ccc(-c3ccc(N4C[C@H](COP(=O)(O)O)OC4=O)cc3F)cn2)n1 [Tedizolid phosphate]
EC50 (MRGPRX4 (S83); MRGPRX4 stably expressed HEK293 cells, calcium mobilization, read-out: EC50): 157 nM
Hill coefficient (MRGPRX4 (S83)): 1.352

COc1ccc2c(c1)CC[C@@H]1[C@@H]2CC[C@]2(C)[C@@H](NCCCCCCN3C(=O)C=CC3=O)CC[C@@H]12 [U73122]
Effect of inhibitor on phospho-drug evoked calcium response [1]: abolished the calcium response

C=C1C(=O)NC(C)C(=O)N(C)C(C)C(=O)NC(C(OC(=O)C(NC(C)=O)C(O)C(C)C)C(C)C)C(=O)N(C)C(C(C)OC)C(=O)OC(C)C(NC(C)=O)C(=O)OC(Cc2ccccc2)C(=O)N1C (centres unmarked) [YM-254890] (Ac-T[PhLac][NMeDha]A[NMeA][X1][NMeT](Me); ester 1-C; configuration not given here)
Effect of inhibitor on phospho-drug evoked calcium response [1]: abolished the calcium response

C/C=C(/C)C(=O)O[C@H]1C(C)=C2[C@H]([C@@H]1OC(=O)CCCCCCC)[C@@](C)(OC(C)=O)C[C@H](OC(=O)CCC)[C@@]1(O)[C@H]2OC(=O)[C@@]1(C)O [thapsigargin]
Effect of inhibitor on phospho-drug evoked calcium response [1]: abolished the calcium response

Dexamethasone palmitate
Fig. 1D dose-response, calcium mobilization response (individual replicate) (MRGPRX4 (S83); Concentration 9.76563e-7 M): -18.225 and -22.739 and -7.984 and -16.162 and -15.021 and -13.070 and 2.408 and -2.265 and -6.745
Fig. 1D dose-response, calcium mobilization response (individual replicate) (MRGPRX4 (S83); Concentration 1.95313e-6 M): -6.511 and -7.350 and 3.472 and -4.164 and -15.203 and -5.200 and 2.167 and -2.706 and -6.484
Fig. 1D dose-response, calcium mobilization response (individual replicate) (MRGPRX4 (S83); Concentration 3.90625e-6 M): -3.747 and 10.479 and -10.773 and -3.912 and -11.558 and -2.335 and 1.476 and 2.520 and -1.305
Fig. 1D dose-response, calcium mobilization response (individual replicate) (MRGPRX4 (S83); Concentration 7.8125e-6 M): -30.862 and -16.831 and -16.502 and -2.263 and -11.827 and -17.176 and -5.630 and 3.868 and -9.469
Fig. 1D dose-response, calcium mobilization response (individual replicate) (MRGPRX4 (S83); Concentration 1.5625e-5 M): -23.657 and 30.652 and -26.797 and 1.282 and -0.449 and -0.613 and 8.674 and 6.385 and -0.252
Fig. 1D dose-response, calcium mobilization response (individual replicate) (MRGPRX4 (S83); Concentration 3.125e-5 M): 88.602 and 69.392 and 95.399 and 41.739 and 60.580 and 65.413 and 42.682 and 17.645 and 71.002
Fig. 1D dose-response, calcium mobilization response (individual replicate) (MRGPRX4 (S83); Concentration 6.25e-5 M): 155.837 and 167.386 and 158.681 and 72.199 and 72.835 and 105.522 and 59.878 and 78.793 and 128.090
Fig. 1D dose-response, calcium mobilization response (individual replicate) (MRGPRX4 (S83); Concentration 0.00025 M): 281.902 and 277.911 and 231.255 and 145.042 and 106.318 and 115.112 and 141.417 and 113.731 and 129.258
Fig. 1D dose-response, calcium mobilization response (individual replicate) (MRGPRX4 (S83); Concentration 0.0005 M): 346.180 and 361.547 and 346.996 and 139.147 and 134.114 and 120.302 and 148.855 and 141.620 and 226.966
Fig. 1D dose-response, calcium mobilization response (individual replicate) (MRGPRX4 (S83); Concentration 0.001 M): 354.688 and 329.354 and 273.082 and 127.830 and 137.045 and 134.530 and 140.483 and 130.182 and 155.284
Hill coefficient (MRGPRX4 (S83)): 1.502
